The results in this text go back to PubChem BioAssay (NCI).

SMILES strings stand for the structures.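 All cell lines were grown in 96-well plates and treated with compound for 48 hours. The concentration for 50% growth inhibition is given as GI50. The concentration for full growth arrest is given as TGI.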 Some results are limits rather than exact numbers.

Among the test systems are BT-549 breast; HCT-15 colon; HL-60(TB) leukemia; HT29 colon; KM12 colon; LOX IMVI melanoma; MALME-3M melanoma; NCI-H23 lung; SF-295 CNS; T-47D breast.
Holding throughout (assay): NCI tumour cell line growth inhibition, 48 h

As to `CC12CCc3ccccc3C1=Nc1ccccc12` (stereo not given), the TGI was 95.6 µM in the assay on BT-549 breast; more than 100 µM in the assay with HCT-15 colon; 76.6 µM in the assay on HL-60(TB) leukemia; more than 100 µM with HT29 colon; 91.9 µM in the assay with KM12 colon; more than 100 µM with LOX IMVI melanoma. For the same molecule, the TGI in the assay on MALME-3M melanoma, in the assay with NCI-H23 lung, with SF-295 CNS and in the assay with T-47D breast was more than 100 µM each time.

For `O=C(NCCCNC(=O)OCc1ccc2c(Br)cc(Br)c(O)c2n1)OCc1ccc2c(Br)cc(Br)c(O)c2n1`, the GI50 in the assay on BT-549 breast, in the assay with HCT-15 colon, with HL-60(TB) leukemia, with HT29 colon, in the assay on KM12 colon and in the assay on LOX IMVI melanoma was more than 100 µM in each case. Further, the GI50 in the assay on MALME-3M melanoma, in the assay on NCI-H23 lung, in the assay with SF-295 CNS and in the assay on T-47D breast was more than 100 µM each time. In addition, the TGI with BT-549 breast, in the assay with HCT-15 colon, in the assay on HL-60(TB) leukemia, in the assay on HT29 colon, in the assay with KM12 colon and in the assay with LOX IMVI melanoma was more than 100 µM in each case. The TGI in the assay on MALME-3M melanoma, in the assay on NCI-H23 lung, in the assay on SF-295 CNS and in the assay with T-47D breast was more than 100 µM each time.

`COc1ccc(C2C(c3ccccc3)C(=O)N2c2cc(OC)c(OC)c(OC)c2)cc1I` (stereo not given): the GI50 with BT-549 breast was 0.419 µM; in the assay with HCT-15 colon, 0.339 µM; in the assay with HL-60(TB) leukemia, 0.225 µM; in the assay on HT29 colon it was 0.344 µM; in the assay with KM12 colon it was 0.343 µM; in the assay with LOX IMVI melanoma, 0.457 µM. Also, the GI50 is more than 100 µM in the assay on MALME-3M melanoma, 0.623 µM in the assay on NCI-H23 lung, 0.337 µM in the assay on SF-295 CNS and more than 100 µM with T-47D breast. Also, the TGI is 5.36 µM in the assay with BT-549 breast; more than 100 µM with HCT-15 colon; 0.533 µM in the assay on HL-60(TB) leukemia; 90.1 µM in the assay with HT29 colon; more than 100 µM with KM12 colon; more than 100 µM with LOX IMVI melanoma. Further, the TGI in the assay with MALME-3M melanoma, with NCI-H23 lung, with SF-295 CNS and with T-47D breast was more than 100 µM throughout.

Consider `Cc1c2ncccc2nc2[nH]c3ccc(OCCN(C)C)cc3c12`, for which the GI50 was 7.46 µM in the assay with BT-549 breast; 1.33 µM in the assay with HCT-15 colon; 3.53 µM in the assay with HL-60(TB) leukemia; 0.961 µM with HT29 colon; 1.93 µM in the assay with KM12 colon; 1.54 µM in the assay with LOX IMVI melanoma. Moreover, the GI50 is 2.42 µM with MALME-3M melanoma, 2.54 µM in the assay on NCI-H23 lung, 1.59 µM with SF-295 CNS and 2.8 µM with T-47D breast. The TGI is 29.7 µM in the assay on BT-549 breast; 16.3 µM in the assay with HCT-15 colon; 16.5 µM in the assay with HL-60(TB) leukemia; 6.05 µM in the assay on HT29 colon; 13.6 µM in the assay on KM12 colon; 5.78 µM with LOX IMVI melanoma. The TGI is 13.5 µM with MALME-3M melanoma, 21 µM in the assay with NCI-H23 lung, 13 µM in the assay on SF-295 CNS and more than 100 µM with T-47D breast.

For the molecule `COc1cccc(Cn2cc3c(c2)-c2oncc2CC3)c1`, the GI50 with BT-549 breast was 6.85 µM; with HCT-15 colon it was 0.401 µM; in the assay on HL-60(TB) leukemia, 0.247 µM; with HT29 colon, 0.306 µM; in the assay with KM12 colon it was 0.379 µM; with LOX IMVI melanoma it was 0.912 µM. Also, the GI50 in the assay on MALME-3M melanoma is 0.915 µM; with NCI-H23 lung, 0.471 µM; in the assay on SF-295 CNS, 0.245 µM; in the assay on T-47D breast, 0.246 µM. Further, the TGI is more than 100 µM in the assay with BT-549 breast; more than 38.1 µM in the assay with HCT-15 colon; 0.762 µM in the assay with HL-60(TB) leukemia; 11.7 µM with HT29 colon; 3.02 µM with KM12 colon; more than 100 µM in the assay with LOX IMVI melanoma. Moreover, the TGI with MALME-3M melanoma is 80.1 µM; with NCI-H23 lung it was more than 80.7 µM; with SF-295 CNS, 1.04 µM; in the assay with T-47D breast, 6.38 µM.

For `COc1ccccc1CNC(=O)C1c2ccccc2C(=O)N(CC(C)C)C1c1cccs1` (stereo not given), the GI50 in the assay on BT-549 breast is 23 µM; with HCT-15 colon, 20.8 µM; in the assay with HL-60(TB) leukemia, 20.5 µM; with HT29 colon it was 17 µM; in the assay on KM12 colon it was 24.8 µM; with LOX IMVI melanoma, 27.8 µM. Moreover, the GI50 with MALME-3M melanoma was 20.7 µM; in the assay on NCI-H23 lung, 25.8 µM; with SF-295 CNS it was 15.6 µM; in the assay on T-47D breast it was 20.2 µM. The TGI in the assay with BT-549 breast was 64.4 µM; in the assay with HCT-15 colon, more than 100 µM; with HL-60(TB) leukemia it was 60.9 µM; in the assay with HT29 colon, 90.5 µM; in the assay on KM12 colon, more than 100 µM; in the assay with LOX IMVI melanoma, 89.1 µM. For the same molecule, the TGI in the assay on MALME-3M melanoma is 60.3 µM; in the assay on NCI-H23 lung, more than 100 µM; with SF-295 CNS it was 67.8 µM; with T-47D breast, 89.8 µM.

With `CC(F)(F)c1cc(F)ccc1-c1sc2cc(O)ccc2c1Oc1ccc(/C=C/C(=O)O)cc1`, the GI50 in the assay with BT-549 breast is 6.46 µM; in the assay with HCT-15 colon, 4.13 µM; in the assay with HL-60(TB) leukemia, 4.44 µM; in the assay with HT29 colon it was 11.8 µM; with KM12 colon, 4.72 µM; in the assay on LOX IMVI melanoma, 6.96 µM. Moreover, the GI50 is 11.6 µM in the assay on MALME-3M melanoma, 15.2 µM in the assay on NCI-H23 lung, 5.23 µM in the assay on SF-295 CNS and 7.1 µM in the assay on T-47D breast. Moreover, the TGI in the assay with BT-549 breast was 27 µM; in the assay on HCT-15 colon it was 18.2 µM; with HL-60(TB) leukemia, 23.8 µM; in the assay on HT29 colon it was 36.1 µM; in the assay with KM12 colon, 18.4 µM; in the assay with LOX IMVI melanoma it was 21.9 µM. Besides, the TGI stood at 44.4 µM in the assay on MALME-3M melanoma, 37.4 µM with NCI-H23 lung, 20.5 µM in the assay on SF-295 CNS and 50 µM in the assay with T-47D breast.
